Drawing on BindingDB's records for doi:10.7270/Q2WS8RVZ (Burnham Center For Chemical Genomics, 2012), this text covers IC50 for 15 molecules.

Each structure is given as a SMILES string.

Sequence of Endothelial PAS domain-containing protein 1 (Q99814 whole entry, the tested form may be a part): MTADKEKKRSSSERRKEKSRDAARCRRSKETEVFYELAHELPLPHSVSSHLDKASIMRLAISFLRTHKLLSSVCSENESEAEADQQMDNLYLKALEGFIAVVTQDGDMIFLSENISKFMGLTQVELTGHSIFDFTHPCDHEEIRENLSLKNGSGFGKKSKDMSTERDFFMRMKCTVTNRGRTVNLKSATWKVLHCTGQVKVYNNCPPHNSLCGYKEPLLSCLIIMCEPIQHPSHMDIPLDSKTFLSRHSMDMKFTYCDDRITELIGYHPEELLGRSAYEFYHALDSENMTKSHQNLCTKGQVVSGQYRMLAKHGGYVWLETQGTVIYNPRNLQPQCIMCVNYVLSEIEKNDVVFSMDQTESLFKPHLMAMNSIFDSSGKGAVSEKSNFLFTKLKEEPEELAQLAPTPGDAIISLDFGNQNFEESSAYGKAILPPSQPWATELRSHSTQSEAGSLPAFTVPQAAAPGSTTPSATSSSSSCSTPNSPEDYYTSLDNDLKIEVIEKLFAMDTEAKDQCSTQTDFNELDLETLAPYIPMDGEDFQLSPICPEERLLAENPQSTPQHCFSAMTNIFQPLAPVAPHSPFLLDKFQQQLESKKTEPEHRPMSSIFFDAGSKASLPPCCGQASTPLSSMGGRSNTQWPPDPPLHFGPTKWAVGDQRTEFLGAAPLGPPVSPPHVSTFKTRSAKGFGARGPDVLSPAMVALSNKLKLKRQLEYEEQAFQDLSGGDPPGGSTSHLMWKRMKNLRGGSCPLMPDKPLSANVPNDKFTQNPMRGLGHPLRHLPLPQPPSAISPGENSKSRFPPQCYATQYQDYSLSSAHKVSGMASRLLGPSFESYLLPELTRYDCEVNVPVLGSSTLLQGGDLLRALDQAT

The assay concerns the target Endothelial PAS domain-containing protein 1 (Homo sapiens, UniProt Q99814).
Molecule `CCOC(=O)Cc1csc(N=NCc2ccc(C(F)(F)F)cc2)n1` [ethyl 2-[2-[(2E)-2-[[4-(trifluoromethyl)phenyl]methylidene]hydrazinyl]-1,3-thiazol-4-yl]ethanoate] gave an IC50 of 49.6 µM. That is a double-digit micromolar value.

For `O=C(O)c1cc(N=NCc2ccc3c(c2)OCCO3)ccc1Cl` [SMR000242957], the IC50 is 5.03 µM.

In the case of `CSc1ccc(CN=Nc2cccc(C(=O)O)c2)cc1` [3-[(N'E)-N'-[4-(methylthio)benzylidene]hydrazino]benzoic acid], the IC50 is 5.33 µM.

Take `CC(C)c1ccc(CN=Nc2ccc(C(=O)O)cc2)cc1` [4-[2-[(4-propan-2-ylphenyl)methylidene]hydrazinyl]benzoic acid]: the midpoint of inhibition, the IC50, lay at 4.08 µM.

With `CCOc1cc(CN=Nc2cccc(C(=O)O)c2)ccc1OC(=O)c1ccccc1` [3-[(N''E)-N''-(4-benzoyloxy-3-ethoxy-benzylidene)hydrazino]benzoic acid], the half-maximal inhibitory concentration (IC50) was 4.22 µM.

In the case of `Cc1nn(-c2ccccc2Cl)c(Cl)c1CN=Nc1cccc(C(=O)O)c1` [3-[2-[[5-chloro-1-(2-chlorophenyl)-3-methylpyrazol-4-yl]methylidene]hydrazinyl]benzoic acid], 23.9 µM corresponded to half-maximal inhibition (IC50).

`O=C(O)c1ccc(N=NCc2ccc(C(F)(F)F)cc2)cc1` [sulfuric acid;4-[(N'E)-N'-[4-(trifluoromethyl)benzylidene]hydrazino]benzoic acid]: half-maximal inhibition (IC50) required 9.84 µM. This IC50 lies about 2.4-fold lower than the previous one.

Consider `COc1cccc(C/N=N/c2ncccc2[N+](=O)[O-])c1OC` [SMR000461041], for which the midpoint of inhibition, the IC50, lay at 8.21 µM.

For `O=C(O)c1cccc(N=NCc2cccs2)c1` [3-[(N'E)-N'-(2-thenylidene)hydrazino]benzoic acid], 5.74 µM corresponded to half-maximal inhibition (IC50).

`Cc1nn(-c2ccccc2)c(Cl)c1CN=Nc1ccc(Cl)c(C(=O)O)c1` [2-chloro-5-[2-[(5-chloro-3-methyl-1-phenylpyrazol-4-yl)methylidene]hydrazinyl]benzoic acid] yielded an IC50 of 64.5 µM. This IC50 is about 11-fold higher than that of the molecule before.

Molecule `O=C(O)c1ccc(N=NCc2ccc3ncccc3c2)cc1` returned an IC50 of 64.5 µM. This lies in the double-digit micromolar range.

`Cc1ccc(CN=Nc2cccc(C(=O)O)c2)s1` gave an IC50 of 64.5 µM.

In turn, `c1ccc(CN=Nc2ccc3ccccc3n2)nc1` [SMR002048648] registered a 50% inhibitory concentration (IC50) of 5.57 µM.

In turn, `CC(C)(C)c1ccc(CN=Nc2ccc(C(=O)O)cc2)cc1` returned an IC50 of 49.6 µM.

Molecule `COc1cc(CN=O)ccc1OCc1ccc(C(=O)O)cc1` [4-[[4-(hydroximinomethyl)-2-methoxy-phenoxy]methyl]benzoic acid] had an IC50 of 4.29 µM. This IC50 is about 12-fold lower than that of the molecule before.
